Tests used:
Experiment in all cases: area under growth-rate inhibition curve (AUC GRI) (dimensionless (GR-based AUC)); higher = less growth inhibition
Details in all cases: exposure time: 72 h; concentrations: 0.1, 1, 10 uM
BT474-P = test system: BT474-P
Outline: (§1)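 Six breast cancer cell line models were used: two triple-negative lines, plus parental HER2+ lines and HER2+ lines resistant to a two-drug combination, each plated at an optimised log-phase density and treated with compound at 0.1, 1 or 10 µM for 72 h. After fixation in 4% paraformaldehyde, nuclei were stained with Hoechst 33342 or DAPI, imaged and counted. Growth was corrected using Day 0 plates, untreated Day 3 plates and DMSO controls, with 2 biological replicates. These corrected counts gave the area under the growth-rate inhibition curve.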

MDA-MB-231 = test system: MDA-MB-231
Outline: as §1

BT474-LTR = test system: BT474-LTR
Outline: as §1

SKBR3-LTR = test system: SKBR3-LTR
Outline: as §1

SKBR3-P = test system: SKBR3-P
Outline: as §1

MDA-MB-468 = test system: MDA-MB-468
Outline: as §1

Compound	area under growth-rate inhibition curve (BT474-P)	area under growth-rate inhibition curve (MDA-MB-231)	area under growth-rate inhibition curve (BT474-LTR)	area under growth-rate inhibition curve (SKBR3-LTR)	area under growth-rate inhibition curve (SKBR3-P)	area under growth-rate inhibition curve (MDA-MB-468)
S=C=Nc1cccc(NC(=S)NCCCCNC(=S)Nc2cccc(N=C=S)c2)c1 [MRS 2578]	1.02	1.02	1.08	1.07	1.02	1.03
CCCNS(=O)(=O)Nc1ncnc(OCCOc2ncc(Br)cn2)c1-c1ccc(Br)cc1 [Macitentan]	0.957	1.02	1.01	1.02	1.02	1.02
CNCCCC12CCC(c3ccccc31)c1ccccc12.[Cl-].[H+] [Maprotiline HCl]	0.984	0.967	1.02	1.02	0.982	0.96
Cc1cccc(C(C)c2c[nH]cn2)c1C.Cl (stereo unspecified) [Medetomidine HCl]	0.995	1.01	0.982	0.995	1.03	1.02
CC(=O)O[C@]1(C(C)=O)CC[C@H]2[C@@H]3C[C@H](C)C4=CC(=O)CC[C@]4(C)[C@H]3CC[C@@]21C [Medroxyprogesterone acetate]	0.945	1.03	1.02	1.01	0.953	1
CC(=O)O[C@]1(C(C)=O)CC[C@H]2[C@@H]3C=C(C)C4=CC(=O)CC[C@]4(C)[C@H]3CC[C@@]21C [Megestrol Acetate]	0.978	1	1.09	1.09	0.968	1.01
CC12CC3CC(C)(C1)CC(N)(C3)C2.Cl [Memantine HCl]	1	0.997	0.981	0.989	1.03	0.982
COc1ccc(CN(CCN(C)C)c2ccccn2)cc1.O=C(O)/C=C\C(=O)O [Mepyramine maleate]	1.03	1.05	1.06	1.05	1.05	1.05
C[N+]1(C)C2CC(OC(=O)C(CO)c3ccccc3)CC1C1OC12.[Br-] (stereo unspecified) [Methscopolamine]	1.05	1.03	1.1	1.04	1.02	1.04
CC[C@@H](CO)NC(=O)[C@@H]1C=C2c3cccc4[nH]cc(c34)C[C@H]2N(C)C1.O=C(O)/C=C\C(=O)O [Methylergometrine maleate]	1.01	1.03	1.05	1.05	1.04	1.06
CCN(CC)CCNC(=O)c1cc(Cl)c(N)cc1OC.Cl [MetoclopraMide HCl]	1.04	1.05	1.09	1.04	1.02	1.01
COCCc1ccc(OCC(O)CNC(C)C)cc1.O=C(O)C(O)C(O)C(=O)O (stereo unspecified) [Metoprolol Tartrate]	0.987	1.01	1.01	0.997	0.999	0.98
CN1CCN2c3ccccc3Cc3ccccc3C2C1.[Cl-].[H+] (stereo unspecified) [Mianserin HCl]	1.07	1.03	1.12	1.09	1.02	1.06
CC#C[C@]1(O)CC[C@H]2[C@@H]3CCC4=CC(=O)CCC4=C3[C@@H](c3ccc(N(C)C)cc3)C[C@@]21C [Mifepristone]	1	1.03	1.02	0.998	0.962	0.989
Cc1[nH]c(=O)c(C#N)cc1-c1ccncc1 [Milrinone]	1.03	1.04	1.05	1.07	1.02	1.03
Nc1nc(CC(=O)Nc2ccc(CCNCC(O)c3ccccc3)cc2)cs1 (stereo unspecified) [Mirabegron]	1.04	1.02	1.11	1.07	1.02	1.01
CCOc1cc(N)c(Cl)cc1C(=O)NCC1CN(Cc2ccc(F)cc2)CCO1.O=C(O)CC(O)(CC(=O)O)C(=O)O (stereo unspecified) [Mosapride Citrate]	1.04	1.03	1.09	1.02	1.01	1.02
CN[C@H](CC(=O)O)C(=O)O [NMDA (N-Methyl-D-aspartic acid)]	1.08	1.04	1.09	1.08	1.07	1.04
CC(C)(Cc1ccc2ccccc2c1)NC[C@@H](O)COc1cccc(Cl)c1C#N [NPS-2143]	0.808	0.874	0.815	0.794	0.833	0.817
COc1ccccc1N1CCN(CC(O)COc2cccc3ccccc23)CC1.[Cl-].[Cl-].[H+].[H+] (stereo unspecified) [Naftopidil DiHCl]	0.978	1.02	1.02	1.05	0.983	0.995
COc1ccccc1N1CCN(CC(O)COc2cccc3ccccc23)CC1 (stereo unspecified) [Naftopidil]	1.01	1.04	1.08	1.07	1	1.02

Compound	area under growth-rate inhibition curve (BT474-P)	area under growth-rate inhibition curve (MDA-MB-231)	area under growth-rate inhibition curve (BT474-LTR)	area under growth-rate inhibition curve (SKBR3-LTR)	area under growth-rate inhibition curve (SKBR3-P)	area under growth-rate inhibition curve (MDA-MB-468)
C=CCN1CCC23c4c5ccc(O)c4OC2C(OCCOCCOCCOCCOCCOCCOCCOC)CCC3(O)C1C5 (stereo unspecified) [Naloxegol]	1	0.991	0.997	1.01	1.01	1.02
C=CCN1CC[C@]23c4c5ccc(O)c4O[C@H]2C(=O)CC[C@@]3(O)[C@H]1C5.[Cl-].[H+] [Naloxone HCl]	1.05	1.04	1.08	1.05	1.03	1.02
Cl.O=C1CC[C@@]2(O)[C@H]3Cc4ccc(O)c5c4[C@@]2(CCN3CC2CC2)[C@H]1O5 [Naltrexone HCl]	1.05	1.03	1.09	1.06	1.05	1.04
Cl.c1ccc2c(CC3=NCCN3)cccc2c1 [Naphazoline HCl]	1.04	1.05	1.11	1.07	1.02	1.03
CNS(=O)(=O)CCc1ccc2[nH]cc(C3CCN(C)CC3)c2c1.[Cl-].[H+] [Naratriptan]	1.04	1.02	1.04	1.06	0.994	1.04
OC(CNCC(O)C1CCc2cc(F)ccc2O1)C1CCc2cc(F)ccc2O1.[Cl-].[H+] (stereo unspecified) [Nebivolol]	0.882	0.874	0.88	0.853	0.938	0.805
CCCc1c2oc(C(=O)O)cc(=O)c2cc2c(=O)cc(C(=O)O)n(CC)c12 [Nedocromil]	1.02	1.03	1.04	1.05	1.02	1.05
Cc1cccc(C)c1NC(=O)CN1CCCC1=O [Nefiracetam]	1.05	1.02	1.06	1.03	1	1.03
Cl.NCc1cnc(S)n1C1CCc2c(F)cc(F)cc2C1 (stereo not drawn) [Nepicastat (SYN-117) HCl]	1.03	1.01	1.08	1.07	1.02	1
O=C(O)c1cccnc1Nc1cccc(C(F)(F)F)c1 [Niflumic acid]	1.01	1.03	1.07	1.04	1.01	1.03
CN/C(=C\[N+](=O)[O-])NCCSCc1csc(CN(C)C)n1 [Nizatidine]	1.05	1.02	1.07	1.05	1	1.04
Cc1cc2c(s1)Nc1ccccc1N=C2N1CCN(C)CC1 [Olanzapine]	1.02	1.01	1.08	1.06	0.97	1.03
CN(C)CC/C=C1\c2ccccc2COc2ccc(CC(=O)O)cc21.Cl [Olopatadine HCl]	1.04	1.04	1.1	1.02	1.02	0.999
Cc1nccn1CC1CCc2c(c3ccccc3n2C)C1=O.[Cl-].[H+] (stereo unspecified) [Ondansetron HCl]	1.05	1.03	1.08	1.02	1.03	1.02
Cc1ccccc1C(OCCN(C)C)c1ccccc1.O=C(O)CC(O)(CC(=O)O)C(=O)O (stereo unspecified) [Orphenadrine Citrate]	1.03	1.02	1.06	1.07	0.995	1.04
CCCCCCCCOc1ccccc1C(=O)Nc1ccc(C(=O)OCC[N+](C)(CC)CC)cc1.[Br-] [Otilonium Bromide]	0.939	1.04	1.07	1.01	1	0.947
CCN(CC)CC#CCOC(=O)C(O)(c1ccccc1)C1CCCCC1.[Cl-].[H+] (stereo unspecified) [Oxybutynin chloride]	1.02	1.04	1.1	1.04	0.999	0.992
Cc1cc(C(C)(C)C)c(O)c(C)c1CC1=NCCN1.[Cl-].[H+] [Oxymetazoline hydrochloride]	1.05	1.01	1.09	1.06	1.02	1.04
CC(C)Oc1ccc(-c2nc(-c3cccc4c3CC[C@@H]4NCCO)no2)cc1C#N [Ozanimod (RPC1063)]	0.933	0.889	1	0.976	0.984	0.927
Cc1cc(CS(=O)(=O)c2ccccc2)cc(OCc2ccc(CN3CCC[C@@H]3CO)cc2)c1 [PF-543]	0.97	1.01	1.01	1.07	1.03	0.99
